In patent publication US20110124523A1, “High Throughput Method for Detecting Apoptosis of Embryonic Stages of Metazoan Helminthic Parasites” (INSTITUTE OF LIFE SCIENCES, priority 2009, published 2011):
Where “and” joins values, the source holds several entries; their conditions need not be identical. Identical values can stand only once.

System: embryonic stages of S. digitata
Assay: Intra cellular expression of CED-9 protein, flow cytometry
Assay type: cell-based, Setaria digitata
Conditions: 24 hr
Procedure: Adult female filarial worms Setaria digitata were collected from the peritoneum of cattle, slaughtered at a nearby abattoir in sterile Hanks Balanced Salt Solution (HBSS) medium (Sigma H 2387-1L) and transported to the laboratory in a sterile container. The medium containing 1% glucose (Sigma G 7528), Penicillin 100 units/ml, Streptomycin 100 μg/ml (Sigma P 4333). And Amphotericin-B 0.25 μg/ml (Sigma A 2942) was buffered with NaHCO3 (Sigma S 5761). About 5 to 7 worms were taken in a petridish, washed three times in medium, dissected into small pieces in 10 ml of medium under sterile conditions and incubated at 37° C. for 30 minutes to allow the release of embryonic stages (eggs and microfilariae) into the medium. The embryonic stages were harvested into sterile 15 ml. centrifuge tubes and washed three times by centrifuging at 300 g for 10 minutes each with medium and the final pellet was suspended in 1 ml. of RPMI-1640 medium (Sigma R 8005) supplemented with 10% FBS (Sigma F 2442) The number of embryonic stages of S. digitata in the above preparation were counted using light microscope, and the suspension was taken in RPMI-1640 medium containing 10% FBS at 1×10^5 embryonic stages/ml. One ml. each was dispensed into individual wells of a 24 well tissue culture plate. One set of wells was taken as untreated control containing only medium with 10% FBS. […] Motility of the Mf was scored under an inverted microscope. After appropriate treatment and incubation, each set of the cultured embryonic stages of S. digitata were harvested from the 24 well tissue culture plate separately in 15 ml. sterile centrifuge tubes, washed with PBS twice and stained as per requirement following manufacturer's instructions as described below. This was followed by two times washing with PBS and final suspension of the stained embryonic stages was taken in 0.5 ml of sheath fluid (BD Biosciences 342003) before their acquisition in the flow cytometer (BD FACS Calibur, Becten and Dickinson, USA). Analysis was performed on 10,000-acquired events depicted as Dot Plots and Histogram Plots using Cellquest Pro soft ware. All plots were representative of at least 3 experiments. The distinctly clustered populations obtained consistently in the Dot plots for the intra uterine embryonic stages of S. digitata (FIG. 1 a) were gated for Mfs (R-1) and eggs (R-2 and R-3) and analyzed for different assays for apoptosis as described below. After in vitro culture for 24 hours with apoptosis inducing reagents the embryonic stages were harvested in 15 ml. sterile centrifuge tubes and fixed for 60 minutes at 0° C. in 1% paraformaldehyde (Sigma P 6148) in PBS. The suspension was washed first with PBS and then with 1× permeabilisation buffer (eBioscience 00-8333-56) and finally resuspended in 100 μl of 1× permeabilisation buffer at 1×10^5 embryonic stages per ml. The intracellular expression of CED-9 was scored by incubation of the fixed and permeabilised embryonic stages with primary goat antibodies—anti CED-9 (Santacruz sc-9202) followed by probing with PE conjugated secondary anti goat IgG-PE (Santacruz sc-3747) antibodies. Incubation of both primary and secondary antibodies (both 1/100 diluted) was done successively in 1× permeabilisation buffer (e Bioscience 00-8333-56) for 1 hr and 45 minutes respectively. The suspension of stained embryonic stages was then washed with PBS twice and finally reading was taken by flow cytometry or confocal microscopy.

Compound | GMI (Geometric Mean Intensity) of Fluorescence, CED-9 Expression (Eggs, 10 μM) | GMI (Geometric Mean Intensity) of Fluorescence, CED-9 Expression (Microfilariae, 10 μM) | GMI (Geometric Mean Intensity) of Fluorescence, CED-9 Expression (Eggs, 1 μM) | GMI (Geometric Mean Intensity) of Fluorescence, CED-9 Expression (Microfilariae, 1 μM)
OO [H2O2] | 115.67 and 123.32 and 113.26 | 15.66 and 17.26 and 16.13 |  | 
CC1=CC(=O)c2c(O)cccc2C1=O [Plumbagin] | 206.36 and 202.92 and 205.16 | 30.96 and 33.25 and 32.27 |  | 
CN[C@@H]1C[C@H]2O[C@@](C)([C@@H]1OC)n1c3ccccc3c3c4c(c5c6ccccc6n2c5c31)C(=O)NC4 [Staurosporine] |  |  | 106.36 and 109.16 and 107.34 | 10.32 and 9.56 and 11.02
